Experimental data published in US4057530A, “2-Phenyl-indole derivatives and process for preparing the same” (priority 1974, dated 1977).

Experiments:
[1] = Static thermostability of stabilized resin, simplified method (GARDNER sub-scale), Compound A; conditions: 210° C; for Colouration given to the polymer: 0 and 3 min
Method: (§1) The stabilizing power of the substances of the invention was studied from two points of view:
(§2) These studies were performed with six different formulae of vinyl resins (hereinafter referred to as Compounds).
(§3) The different compounds were mixed and calendered in a mixer of which the cylinders were heated to 160° C. The rigid sheets so obtained were then heated in an oven to a temperature between 180° C and 215° C, until incipient carbonization.
(§4) A stove with rotating drums, ventilated and equipped with a thermostat was used for this operation. In the trials described hereunder, the behaviour of a sheet containing the stabilizer to be tested was compared to that of a sheet of the same formula but containing 2-phenyl-indole as stabilizer.
2. It is also possible to use a simplified method which is more rapid and with which valid results are also obtained: a reference scale is drawn up with sheets of thermally treated polyvinyl chloride, of which the colourations have been definitely determined in GARDNER degrees as above. A GARDNER sub-scale is thus obtained in polyvinyl chloride sheets which can be directly compared to the sheets to be tested without using the comparator.
Finally, trials were carried out with Stabilizers 15, 16 and 17 and with 2-phenyl-indole. Compound A was used and the temperature was 210° C.

mice = experiment: Acute toxicity by oral route in mice (LD50); format: in vivo; conditions: LD50 study
Method: (§5) The study of the acute toxicity of the stabilizers listed below was carried out by determining the dose of substance which provoked the death of 50% of the treated animals (LD50). A gummy suspension of the substance under study was administered by oral route to groups of at least ten mice and the following results were observed: […]

[2] = Acute toxicity by oral route in mice (LD50); format: in vivo; conditions: mouse, in vivo, gummy suspension
Method: as §5

[3] = Static thermostability of stabilized resin, GARDNER Scale Comparator, Compound A; conditions: 185° C
Method: as §1, §2, §3, §4
1. The colouration of the sheets, of which samples were removed from the stove at fixed intervals was compared to a standard scale of colouration, known as the GARDNER Scale, and expressed in terms of the reference figures of the GARDNER Scale.
Comparisons were made with a GARDNER Scale Comparator which contains 18 filters of coloured glass and which offers the possibility of observing by transparency and in a limited field of view both the sheet and the reference filters.

SMILES | Static thermostability compared with 2-phenyl-indole [1] | Colouration of sheet (GARDNER sub-scale) ([1]; 0 min) | Colouration of sheet (GARDNER sub-scale) ([1]; 3 min) | Colouration of sheet (GARDNER sub-scale) ([1]; 6 min) | Colouration of sheet (GARDNER sub-scale) ([1]; 9 min) | Colouration of sheet (GARDNER sub-scale) ([1]; 12 min) | Colouration of sheet (GARDNER sub-scale) ([1]; 15 min) | Toxic symptoms (mice) | LD50 [2] | Colouration of sheet (GARDNER sub-scale) ([1]; 18 min) | other results
Sc1ccc(-c2cc3ccccc3[nH]2)cc1 [Stabilizer 1, 2-(4'-mercapto-phenyl)-indole] | superiority of Stabilizer 1 over 2-phenyl-indole | 1 GARDNER degrees | 2 GARDNER degrees | 2.5 GARDNER degrees | 7 GARDNER degrees | 11 GARDNER degrees | 12 GARDNER degrees | none | > 2000 mg/kg |  | 
CSc1ccc(-c2cc3ccccc3[nH]2)cc1 [Stabilizer 3, 2-(4'-methylthio-phenyl)-indole] | markedly superior to 2-phenyl-indole | 1 GARDNER degrees | 1 GARDNER degrees | 2 GARDNER degrees | 3 GARDNER degrees | 8 GARDNER degrees | 10 GARDNER degrees | none | > 3000 mg/kg |  | 
CC(=O)Oc1ccc(-c2cc3ccccc3[nH]2)cc1 [Stabilizer 4, 2-(4'-acetoxy-phenyl)-indole] |  |  |  |  |  |  |  | none | > 3000 mg/kg |  | 
CCOC(=O)C(C)(C)Oc1ccc(-c2cc3ccccc3[nH]2)cc1 [Stabilizer 5, 2-(4'-carbethoxyisopropyloxy-phenyl)-indole] | markedly superior to 2-phenyl-indole |  |  |  |  |  |  | none | > 3000 mg/kg |  | 
O=C(Oc1ccc(-c2cc3ccccc3[nH]2)cc1)c1ccccc1 [Stabilizer 6, 2-(4'-benzoyloxy-phenyl)-indole] |  |  |  |  |  |  |  | none | > 4000 mg/kg |  | 
Nc1cccc(-c2cc3ccccc3[nH]2)c1 [Stabilizer 11, 2-(3'-amino-phenyl)-indole] | developed less rapidly than that due to 2-phenyl-indole | 3 GARDNER degrees | 3 GARDNER degrees | 4 GARDNER degrees | 5 GARDNER degrees | 10 GARDNER degrees | 12 GARDNER degrees |  |  | burnt | Colouration given to the polymer [1]: relatively intense yellow colouration
O=C(O)COc1ccc(-c2cc3ccccc3[nH]2)cc1 [Stabilizer 12, 2-(4'-carboxymethoxy-phenyl)-indole] | developed less rapidly than those due to 2-phenyl-indole | 2 GARDNER degrees | 2 GARDNER degrees | 3 GARDNER degrees |  |  | brown |  |  | burnt | 
CCOC(=O)COc1ccc(-c2cc3ccccc3[nH]2)cc1 [Stabilizer 13, 2-(4'-carbethoxymethoxy-phenyl)-indole] | markedly superior to 2-phenyl-indole | 2 GARDNER degrees | 2 GARDNER degrees | 3 GARDNER degrees | 3 GARDNER degrees | 9 GARDNER degrees | 11 GARDNER degrees |  |  | burnt | 
CC(=O)Nc1ccc(-c2cc3ccccc3[nH]2)cc1 [Stabilizer 14, 2-(4'-N-acetylamino-phenyl)-indole] | slightly superior to 2-phenyl-indole | 2 GARDNER degrees | 2 GARDNER degrees | 3 GARDNER degrees | 4 GARDNER degrees | 8 GARDNER degrees | 12 GARDNER degrees |  |  | burnt | 
CC(C)Sc1ccc(-c2cc3ccccc3[nH]2)cc1 [Stabilizer 17, 2-(4'-isopropylthio-phenyl)-indole] | very rapidly found to be superior to 2-phenyl-indole | 1 GARDNER degrees | 1 GARDNER degrees | 2 GARDNER degrees | 4 GARDNER degrees | 10 GARDNER degrees | 13 GARDNER degrees |  |  | burnt | Colouration of sheet (GARDNER Scale) ([3]; 0 min): 1 GARDNER degrees; Colouration of sheet (GARDNER Scale) ([3]; 6 min): 1 GARDNER degrees; Colouration of sheet (GARDNER Scale) ([3]; 12 min): 2 GARDNER degrees; Colouration of sheet (GARDNER Scale) ([3]; 18 min): 4 GARDNER degrees; Colouration of sheet (GARDNER Scale) ([3]; 24 min): 9 GARDNER degrees; Colouration of sheet (GARDNER Scale) ([3]; 30 min): 11 GARDNER degrees; Colouration of sheet (GARDNER Scale) ([3]; 36 min): 12 GARDNER degrees; Colouration of sheet (GARDNER Scale) ([3]; 42 min): 13 GARDNER degrees; Colouration of sheet (GARDNER Scale) ([3]; 48 min): 14 GARDNER degrees; Colouration of sheet (GARDNER Scale) ([3]; 54 min): burnt
Nc1ccc(-c2cc3ccccc3[nH]2)cc1 [Stabilizer 22, 2-(4'-amino-phenyl)-indole] | developed less rapidly than that due to 2-phenyl-indole | 2 GARDNER degrees | 3 GARDNER degrees | 3 GARDNER degrees | 4 GARDNER degrees | 6 GARDNER degrees | 12 GARDNER degrees |  |  | burnt | Colouration given to the polymer [1]: relatively strong yellow colouration
O=C(Nc1ccccc1-c1cc2ccccc2[nH]1)c1ccccc1 [Stabilizer 25, 2-(2'-N-benzoylamino-phenyl)-indole] | slightly superior to 2-phenyl-indole | 2 GARDNER degrees | 2 GARDNER degrees | 4 GARDNER degrees | 6 GARDNER degrees | 9 GARDNER degrees | 12 GARDNER degrees |  |  | burnt | 
c1ccc(-c2ccc(-c3cc4ccccc4[nH]3)cc2)cc1 [Stabilizer 26, 2(4'-phenyl-phenyl)-indole] | markedly superior to 2-phenyl-indole | 2 GARDNER degrees | 2 GARDNER degrees | 3 GARDNER degrees | 4 GARDNER degrees | 5 GARDNER degrees | 12 GARDNER degrees |  |  | 14 GARDNER degrees | 
